How the values were obtained:
hGPR40 [1] = molecular target: T1, hGPR40 (Homo sapiens, UniProt O14842); assay: Human beta-arrestin agonist assay with 1% FBS (PathHunter, hEK293-hFFAR1); format: cell-based; parameters: host or cells: HEK293 (hEK293-hFFAR1 PathHunter cells)
From the text: Human embryonic kidney (hEK293)-hFFAR1 cells are purchased from DiscoveRx. Human osteosarcoma (U2OS) cells expressing mFFAR1 are developed by DiscoveRX. These cells co-express the Prolink (PK)-tagged GPR40 and the Enzyme Acceptor (EA)-tagged beta-arrestin fusion proteins. If activation of the GPR40 stimulates beta-arrestin recruitment, it would force complementation of the beta galactosidase (B-gal) enzyme fragments, forming a B-gal enzyme that generates a chemiluminescent signal using the DiscoveRx PathHunter detection kit. Cells are incubated overnight at 5,000 cells/well in 384 well plates in culture media containing 1% FBS (fetal bovine serum). Serial diluted compounds in DMSO (2× dilutions to generate 20 concentrations) are step down diluted in culture media containing 1% FBS (fetal bovine serum) and added to cells with a final top concentration starting of 100 μM. After addition of compounds, cells are incubated for 90 min at 37° C. in 5% CO2 incubator, and DiscoveRX kit detection reagents are added. Measurement of the chemiluminescent signal is ascertained with the Envision reader, after a 1-hour incubation at room temperature. Data are fit to a 4 parameter-fit logistics to determine EC50 values; % activity is measured versus maximum response to TAK875 at 1 μM.
Target sequence in this assay (O14842 whole entry, the tested form may be a part): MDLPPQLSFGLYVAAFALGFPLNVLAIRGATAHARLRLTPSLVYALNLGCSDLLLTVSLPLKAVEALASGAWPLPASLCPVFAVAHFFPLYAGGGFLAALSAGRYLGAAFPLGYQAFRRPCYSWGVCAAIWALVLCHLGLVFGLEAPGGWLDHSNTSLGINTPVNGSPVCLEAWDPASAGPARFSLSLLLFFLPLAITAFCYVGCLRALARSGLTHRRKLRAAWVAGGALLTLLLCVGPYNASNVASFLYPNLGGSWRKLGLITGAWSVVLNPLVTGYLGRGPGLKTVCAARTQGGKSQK
Target sequence in this assay (P32121 whole entry partner, the tested form may be a part): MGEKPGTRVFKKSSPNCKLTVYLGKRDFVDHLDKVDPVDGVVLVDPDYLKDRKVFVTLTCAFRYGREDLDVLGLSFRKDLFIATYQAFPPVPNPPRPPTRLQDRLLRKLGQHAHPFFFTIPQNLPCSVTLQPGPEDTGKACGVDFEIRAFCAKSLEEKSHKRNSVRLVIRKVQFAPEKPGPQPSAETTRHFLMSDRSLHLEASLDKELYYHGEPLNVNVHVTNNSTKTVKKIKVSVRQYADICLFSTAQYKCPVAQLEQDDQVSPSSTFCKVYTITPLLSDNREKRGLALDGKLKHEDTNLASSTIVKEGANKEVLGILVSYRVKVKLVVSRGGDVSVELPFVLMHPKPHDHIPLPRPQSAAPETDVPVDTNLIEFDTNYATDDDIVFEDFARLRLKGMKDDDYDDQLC

Zucker fa/fa rats = assay: Acute oral glucose tolerance test (OGTT); format: in vivo, rat
Method: OGTTs are performed in Zucker fa/fa rats, a rodent model of insulin resistance, after 1 and 21 days of orally administered material at 1.0, 3.0 and 10 mg/kg. TAK875 at 1 mg/kg served as the positive control. The OGTTs are performed one hour post compound administration with blood samples taken for determination of glucose and insulin levels at 10, 20, 40, 60, and 120 minutes post glucose administration.

hGPR40 [2] = molecular target: T1, hGPR40; assay: Calcium Flux Primary Assay (FLIPR, Calcium 4 Dye); format: cell-based; parameters: expressed in transfected cells; host or cells: HEK293; conditions: HEK293 cells over expressing human GPR40; Mean±SEM
Method: HEK293 cells over expressing the human GPR40 cDNA maintained in Dulbecco's modified Eagle's medium with F12 medium in 3:1 ratio supplemented with 10% FBS and 800 μg/ml geneticin at 37° C. and 5% CO2 are employed for the study. Agonist assays are performed using a Calcium 4 Dye assay kit (Molecular Devices) in the presence or absence of 0.1% fatty acid free BSA in the assay buffer (1×HBSS (Hank's Balanced Salt Solution) & 20 mM HEPES (4-(2-hydroxyethyl)-1-piperazineethanesulfonic acid). Receptor activation is measured as an increase in intracellular calcium using the Fluorometric Imaging Plate Reader (FLIPR). Maximum change in fluorescence over the base line is used to determine the agonist response. The EC50 value of the compound is calculated using Excel Fit software (version 4; IDBS) by plotting concentration vs relative fluorescence units (RFUs).
Target sequence in this assay (O14842 whole entry, the tested form may be a part): as the sequence (O14842 whole entry, the tested form may be a part) above

## CC#C[C@@H](CC(=O)O)c1ccc(OCc2cc(-c3ccccc3C)cn3ncnc23)cc1 [Example 1, (S)-3-[4-(6-o-Tolyl-[1,2,4]triazolo[1,5-a]pyridin-8-ylmethoxy)-phenyl]-hex-4-ynoic acid]
hGPR40 [1]; 1% FBS, 90 min, read-out: hGPR40 b-arrestin EC50
  EC50: 47.4 nM
hGPR40 [1]; versus maximum response to TAK875 at 1 μM
  hGPR40 b-arrestin % stimulation max (FA): 163%
Zucker fa/fa rats; oral
  ED90 for glucose lowering: 3.3 mg/kg
Zucker fa/fa rats; oral 1, 3, 10 mg/kg, values not statistically significant
  Insulin AUCs during the OGTTs: dose dependent elevation
Zucker fa/fa rats; oral, Example 1 at 1, 3 and 10 mg/kg, TAK875 at 1 mg/kg, p<0.05
  AUCs for glucose lowering: statistically significant
hGPR40 [2]
  EC50: 146 nM
